For test [1], the target named is ALK2 FOP mutant (aa172-499 R206H) (Homo sapiens (Human), UniProt Q04771, R206H). In words: Caliper biochemical peptide phosphorylation assay, ALK2 FOP. Conditions: Caliper peptide phosphorylation, R206H, 15 uM ATP; read-out: ALK2 FOP EPK IC50.
Test [2] addresses T1, wild-type ALK2 (aa172-499) (Homo sapiens (Human), UniProt Q04771). Nature of the test: ADPGlo biochemical autophosphorylation assay, ALK2. Conditions: 15 uM ATP. Background: ADP-Glo first removes unused ATP, then detects ADP through luciferase.
For test [3], the system named is HuH7 cells, BMP response element (BRE) luciferase reporter, BMP6 stimulated. In words: BMP signaling reporter gene assay. It counts as cell-based. The settings on record: Homo sapiens, Huh-7; BMP6 100 ng/ml; read-out: MSD HuH7 cell BMP reporter IC50. On the technique in general: A reporter such as luciferase makes a cellular process visible.
Description: A human liver hepatocellular carcinoma cell line (HuH7) stably transfected with a reporter plasmid consisting of the human BMP response element (BRE) from the Id1 promoter fused to a luciferase reporter gene was generated through lentiviral transduction.
Assays were performed in 384-well flat bottom polystyrene microtiter plates (cell culture treated) with sterile lids. The cells were starved through medium exchange in Blasticidine- and FCS-free medium 16 h before the assay. Prior to the assay, cells were detached from the stock flask using trypsin/EDTA and counted. A cell suspension in the same medium without Blasticidin and FCS was prepared. 2×10^4 cells in a total volume of 40 ul were added to each well of a plate already containing serial dilutions of each compound in DMSO (final DMSO concentration 0.5%). […] Assay plates are incubated for another 5 hours at 37° C., 5% CO2 before luciferase levels are measured.
The amount of expressed luciferase is quantified using the Steady-Glo® Luciferase Assay System (Promega #E2520).
In a further test the target is ALK1 (aa166-493) (Homo sapiens (Human), UniProt P37023). Nature of the test: Caliper biochemical peptide phosphorylation assay, ALK1. Conditions: 15 uM ATP.
Another test has as its target ALK3 (aa198-525) (Homo sapiens (Human), UniProt P36894). Nature of the test: ADPGlo biochemical autophosphorylation assay, ALK3. Conditions: 15 uM ATP.
Test [4] addresses T1, wild-type ALK2 (aa172-499). Nature of the test: Caliper biochemical peptide phosphorylation assay, ALK2. Conditions: Caliper peptide phosphorylation, 15 uM ATP; read-out: ALK2 IC50.
A further test has as its target ALK5 (aa162-503) (Homo sapiens (Human), UniProt P36897). Nature of the test: Caliper biochemical peptide phosphorylation assay, ALK5. Conditions: 15 uM ATP. An excerpt: For all biochemical assays, human recombinant proteins were expressed in and purified from baculo virus transfected insect cells. The constructs comprised the GS-domain and kinase domain of wild-type ALK2 (aa172-499), ALK2 FOP mutant (aa172-499 R206H), ALK3 (aa198-525), ALK5 (aa162-503) and ALK6 (aa168-495).
A kinase selectivity panel which measures substrate peptide phosphorylation was set-up for wild-type ALK2 (aa172-499), ALK2 FOP mutant (aa172-499 R206H), ALK1 (aa166-493), ALK5 (aa162-503) and ALK6 (aa168-495). The technology used for the described assay is based on the separation and quantification of substrate and product in an electrical field. In the course of the kinase reaction the peptide substrate is phosphorylated by a kinase. […] Due to this difference in charge the phosphorylated und unphosphorylated peptides migrate with different velocities in an electrical field.
In the applied method, this separation takes place inside a chip that contains a complex capillary system for simultaneous analysis of 12 samples (“LabChip EZ Reader 12-sipper chip”, Caliper Technologies Corp., Mountain View, USA). In order to allow the detection and quantification of the peptides in the capillary system, the peptides carry a fluorescent label (fluorescein). With this label the peptides can be quantified by fluorescence intensity through the instruments laser and detection system (LC3000, Caliper Life Sciences).
The assays were performed in 384-well, low volume microtiter assay plates in a final reaction volume of 9 ul. Dose-response curves were generated by incubating 10 nM of each kinase together with 2 uM of the fluorescently labeled substrate peptide 5-Fluo-Ahx-[…]-T-[…]-amid (10 mM stock solution in DMSO) in 50 mM Hepes pH 7.5, 0.02% Tween 20, 0.02% BSA, 1 mM DTT, 10 uM Na3VO4, 10 mM ß-Glycerolphosphate, 1 mM MgCl2, 12 mM MnCl2 (ALK1 and ALK6 7 mM) and 15 uM ATP for 60 min at 30° C. in the presence or absence of compound diluted in DMSO.
Kinase reactions were terminated by adding 15 ul STOP buffer (100 mM HEPES pH 7.5, 5% DMSO, 0.1% Caliper coating reagent, 10 mM EDTA, and 0.015% Brij35.
Plates with terminated kinase reactions were transferred to the Caliper LC3000 workstation (Caliper Technologies Corp., Mountain View, USA) for reading. The relative amount of phosphorylated peptide r, was calculated using the heights of the substrate peak, s, and the product peak, p:r=p/(p+s).
IC50 values for a given antagonist correspond to the compound concentration needed to inhibit half of the maximum signal of the kinase reaction.

The target of the next test is ALK6 (aa168-495) (Homo sapiens (Human), UniProt O00238). In words: Caliper biochemical peptide phosphorylation assay, ALK6. The settings on record: 15 uM ATP.

Structures are written as SMILES. Some results are limits rather than exact numbers.

ALK2 FOP mutant (aa172-499 R206H), sequence (Q04771 172-499 R206H): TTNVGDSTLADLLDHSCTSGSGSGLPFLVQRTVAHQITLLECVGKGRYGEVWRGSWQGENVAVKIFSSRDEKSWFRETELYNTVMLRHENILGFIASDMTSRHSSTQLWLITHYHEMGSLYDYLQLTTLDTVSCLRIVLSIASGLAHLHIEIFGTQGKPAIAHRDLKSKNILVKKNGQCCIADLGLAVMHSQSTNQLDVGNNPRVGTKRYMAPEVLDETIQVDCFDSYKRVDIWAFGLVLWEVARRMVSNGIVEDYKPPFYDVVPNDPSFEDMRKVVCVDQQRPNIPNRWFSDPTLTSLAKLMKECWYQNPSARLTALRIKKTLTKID
ALK6 (aa168-495), sequence (O00238 168-495): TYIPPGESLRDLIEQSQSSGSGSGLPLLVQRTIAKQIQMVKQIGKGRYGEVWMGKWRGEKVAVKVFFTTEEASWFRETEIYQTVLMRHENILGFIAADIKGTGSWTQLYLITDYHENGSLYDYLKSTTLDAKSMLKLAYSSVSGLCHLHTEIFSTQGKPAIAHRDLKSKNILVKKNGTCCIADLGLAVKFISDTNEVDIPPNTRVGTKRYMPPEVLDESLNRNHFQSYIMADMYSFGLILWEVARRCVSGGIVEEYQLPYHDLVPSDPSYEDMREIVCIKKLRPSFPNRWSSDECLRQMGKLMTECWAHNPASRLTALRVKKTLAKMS
ALK1 (aa166-493), sequence (P37023 166-493): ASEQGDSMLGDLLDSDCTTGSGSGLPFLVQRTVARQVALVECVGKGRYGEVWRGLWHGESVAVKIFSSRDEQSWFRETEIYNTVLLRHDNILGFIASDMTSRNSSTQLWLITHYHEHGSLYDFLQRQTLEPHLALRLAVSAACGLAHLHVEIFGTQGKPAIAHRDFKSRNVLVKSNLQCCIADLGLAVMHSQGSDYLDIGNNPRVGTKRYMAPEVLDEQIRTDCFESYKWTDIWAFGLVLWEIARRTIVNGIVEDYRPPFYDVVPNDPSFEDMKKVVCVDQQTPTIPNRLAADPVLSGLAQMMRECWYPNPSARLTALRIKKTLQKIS
T1 sequence (Q04771 172-499): as the sequence (Q04771 172-499 R206H) above, with H35R counted along it
ALK5 (aa162-503), sequence (P36897 162-503): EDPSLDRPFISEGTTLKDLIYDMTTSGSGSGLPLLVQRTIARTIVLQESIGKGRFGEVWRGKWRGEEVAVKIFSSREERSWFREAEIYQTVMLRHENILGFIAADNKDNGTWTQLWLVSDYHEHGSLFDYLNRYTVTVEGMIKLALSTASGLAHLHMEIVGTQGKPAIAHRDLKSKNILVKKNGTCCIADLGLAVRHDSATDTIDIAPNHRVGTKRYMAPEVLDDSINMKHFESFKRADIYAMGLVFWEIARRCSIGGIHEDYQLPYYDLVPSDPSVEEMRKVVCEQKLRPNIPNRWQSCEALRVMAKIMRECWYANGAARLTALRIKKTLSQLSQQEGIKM
ALK3 (aa198-525), sequence (P36894 198-525): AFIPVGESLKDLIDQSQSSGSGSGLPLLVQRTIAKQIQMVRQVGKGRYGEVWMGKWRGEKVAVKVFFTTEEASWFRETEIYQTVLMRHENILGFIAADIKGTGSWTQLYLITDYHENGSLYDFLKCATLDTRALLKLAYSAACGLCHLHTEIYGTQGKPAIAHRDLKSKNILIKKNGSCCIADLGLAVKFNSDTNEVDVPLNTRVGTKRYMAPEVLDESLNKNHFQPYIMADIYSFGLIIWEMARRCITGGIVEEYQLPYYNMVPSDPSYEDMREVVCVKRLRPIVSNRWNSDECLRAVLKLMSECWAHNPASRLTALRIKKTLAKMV

Regarding `CN1C(=O)Cc2cc(-c3cncc(-c4ccc(=O)n(C)c4)c3)ccc21` [Example 19, 1-methyl-5-(1′-methyl-6′-oxo-1′,6′-dihydro-[3,3′-bipyridin]-5-yl)indolin-2-one], the IC50 in test [1] stood at 810 nM; in test [2], 2200 nM; in test [3], 1900 nM; on ALK1 (aa166-493) it was 4200 nM; at ALK3 (aa198-525), 5400 nM; in test [4], 740 nM. Further, the IC50 at ALK5 (aa162-503) is more than 10000 nM; against ALK6 (aa168-495), 9300 nM.

Regarding `CC(C)N1C(=O)Cc2cc(-c3cncc(-c4ccc(=O)n(C(C)C)c4)c3)ccc21` [Example 21, 1-Isopropyl-5-(1′-isopropyl-6′-oxo-1′,6′-dihydro-[3,3′-bipyridin]-5-yl)indolin-2-one], the IC50 turned out to be 53 nM in test [1]; 64 nM in test [2]; 60 nM in test [3]; 360 nM against ALK1 (aa166-493); 570 nM on ALK3 (aa198-525); 60 nM in test [4]. For the same compound, the figures for the IC50 against ALK5 (aa162-503) and on ALK6 (aa168-495) were 1800 nM and 720 nM, respectively.

In the case of `CCC1C(=O)N(C)c2ccc(-c3cncc(-c4ccc(=O)n(C(C)C)c4)c3)cc21` (centres unmarked) [Example 22, 3-Ethyl-5-(1′-isopropyl-6′-oxo-1′,6′-dihydro-[3,3′-bipyridin]-5-yl)-1-methylindolin-2-one], the IC50 turned out to be 340 nM in test [1]; 725 nM in test [2]; 540 nM in test [3]; 2170 nM at ALK1 (aa166-493); 4200 nM on ALK3 (aa198-525); 390 nM in test [4]. The results for the IC50 on ALK5 (aa162-503) and on ALK6 (aa168-495) were more than 10000 nM and 2770 nM, respectively.

On to `CC(C)n1cc(-c2cncc(-c3ccc4c(c3)C(F)(F)C(=O)N4C)c2)ccc1=O` [Example 23, 3,3-Difluoro-5-(1′-isopropyl-6′-oxo-1′,6′-dihydro-[3,3′-bipyridin]-5-yl)-1-methylindolin-2-one], for which the 50% inhibitory concentration (IC50) in test [1] stood at 870 nM; in test [2] it was 1200 nM; in test [3], 1200 nM; against ALK1 (aa166-493), 5600 nM; on ALK3 (aa198-525) it was 5800 nM; in test [4] it was 670 nM. The figures for the half-maximal inhibitory concentration (IC50) against ALK5 (aa162-503) and at ALK6 (aa168-495) were more than 10000 nM and 4500 nM, respectively.

Take `CC(C)CN1C(=O)Cc2cc(-c3cncc(-c4ccc(=O)n(C(C)C)c4)c3)ccc21` [Example 24, 1-Isobutyl-5-(1′-isopropyl-6′-oxo-1′,6′-dihydro-[3,3′-bipyridin]-5-yl)indolin-2-one]: the IC50 stood at 60 nM in test [1]; 67 nM in test [2]; 60 nM in test [3]; 420 nM against ALK1 (aa166-493); 300 nM on ALK3 (aa198-525); 70 nM in test [4]. Also, the IC50 is 1900 nM against ALK5 (aa162-503) and 800 nM at ALK6 (aa168-495).

Consider `CCCN1C(=O)Cc2cc(-c3cncc(-c4ccc(=O)n(C(C)C)c4)c3)ccc21` [Example 25, 5-(1′-Isopropyl-6′-oxo-1′,6′-dihydro-[3,3′-bipyridin]-5-yl)-1-propylindolin-2-one], for which the IC50 in test [1] came out at 70 nM; in test [2], 100 nM; in test [3], 90 nM; on ALK1 (aa166-493), 540 nM; against ALK3 (aa198-525) it was 490 nM; in test [4], 80 nM. In addition, the figures for the IC50 on ALK5 (aa162-503) and at ALK6 (aa168-495) were 1500 nM and 1000 nM, respectively.

As to `CC(C)n1cc(-c2cncc(-c3cc(F)c4c(c3)CC(=O)N4C)c2)ccc1=O` [Example 36, 7-Fluoro-5-(1′-isopropyl-6′-oxo-1′,6′-dihydro-[3,3′-bipyridin]-5-yl)-1-methylindolin-2-one], the IC50 in test [1] worked out at 230 nM; in test [2], 350 nM; in test [3], 390 nM; against ALK1 (aa166-493), 1300 nM; on ALK3 (aa198-525), 2400 nM; in test [4] it was 190 nM. In addition, the IC50 against ALK5 (aa162-503) was 9300 nM; at ALK6 (aa168-495) it was 2900 nM.

`CC(C)n1cc(-c2cncc(-c3cnc4c(c3)CCC(=O)N4C)c2)ccc1=O` [Example 37, 6-(1′-Isopropyl-6′-oxo-1′,6′-dihydro-[3,3′-bipyridin]-5-yl)-1-methyl-3,4-dihydro-1,8-naphthyridin-2(1H)-one]: the IC50 in test [1] was 240 nM; in test [2] it was 290 nM; in test [3] it was 300 nM; on ALK1 (aa166-493) it was 1700 nM; against ALK3 (aa198-525), 2500 nM; in test [4] it was 240 nM. The IC50 was more than 10000 nM against ALK5 (aa162-503) and 5400 nM on ALK6 (aa168-495).

Take `CC(C)n1cc(-c2cncc(-c3ccc4c(c3)CC(=O)N4CC3CCC3)c2)ccc1=O` [Example 38, 1-(cyclobutylmethyl)-5-(1′-isopropyl-6′-oxo-1′,6′-dihydro-[3,3′-bipyridin]-5-yl)indolin-2-one]: the IC50 is 60 nM in test [1]; 130 nM in test [2]; 100 nM in test [3]; 640 nM at ALK1 (aa166-493); 540 nM at ALK3 (aa198-525); 60 nM in test [4]. The half-inhibitory concentration (IC50) against ALK5 (aa162-503) stood at 3400 nM; against ALK6 (aa168-495) it was 1100 nM.

For the compound `CCC(CC)CN1C(=O)Cc2cc(-c3cncc(-c4ccc(=O)n(C(C)C)c4)c3)ccc21` [Example 40, 1-(2-ethylbutyl)-5-(1′-isopropyl-6′-oxo-1′,6′-dihydro-[3,3′-bipyridin]-5-yl)indolin-2-one], the IC50 amounted to 80 nM in test [1]; 94 nM in test [2]; 100 nM in test [3]; 900 nM on ALK1 (aa166-493); 800 nM against ALK3 (aa198-525); 100 nM in test [4]. In addition, the IC50 on ALK5 (aa162-503) was determined as 4200 nM; at ALK6 (aa168-495), 860 nM.

In the case of `CC(C)n1cc(-c2cncc(-c3cnc4c(c3)CC(=O)N4)c2)ccc1=O` [Example 41, 5-(1′-Isopropyl-6′-oxo-1′,6′-dihydro-[3,3′-bipyridin]-5-yl)-1H-pyrrolo[2,3-b]pyridin-2(3H)-one], the half-maximal inhibitory concentration (IC50) in test [1] amounted to 710 nM; in test [2], 490 nM; in test [3], 630 nM; against ALK1 (aa166-493), 6400 nM; on ALK3 (aa198-525), 6300 nM; in test [4], 470 nM. Besides, the IC50 at ALK5 (aa162-503) and at ALK6 (aa168-495) was more than 10000 nM each time.

Regarding `CC(C)n1cc(-c2cc(-c3ccc4c(c3)CC(=O)N4C)cnc2N)ccc1=O` [Example 42, 5-(2-amino-1′-isopropyl-6′-oxo-1′,6′-dihydro-[3,3′-bipyridin]-5-yl)-1-methylindolin-2-one], the IC50 was 150 nM in test [1]; 460 nM in test [2]; 310 nM in test [3]; 1400 nM on ALK1 (aa166-493); 3400 nM at ALK3 (aa198-525); 190 nM in test [4]. Besides, the IC50 against ALK5 (aa162-503) amounted to 5600 nM; against ALK6 (aa168-495), 3750 nM.

In the case of `CC(C)n1cc(-c2nc(-c3ccc4c(c3)CC(=O)N4C)cnc2N)ccc1=O` [Example 43, 5-(5-amino-6-(1-isopropyl-6-oxo-1,6-dihydropyridin-3-yl)pyrazin-2-yl)-1-methylindolin-2-one], the half-maximal inhibitory concentration (IC50) amounted to 90 nM in test [1]; 90 nM in test [2]; 120 nM in test [3]; 520 nM against ALK1 (aa166-493); 600 nM at ALK3 (aa198-525); 100 nM in test [4]. Further, the IC50 was determined as 1000 nM on ALK5 (aa162-503) and 2000 nM at ALK6 (aa168-495).

As usually defined, the IC50 is the concentration needed to halve the response being measured.

Source of the values: patent US11160797B2, “Pyridinone derivatives and their use as selective ALK-2 inhibitors” (NOVARTIS AG, priority 2017, dated 2021).
